Where two headings read alike, the source gives them in different places.
Experiments:
[1] = system: murine Lewis lung carcinoma cell line (LLC1); test: BCNU and MGd, tumor regrowth delay in subcutaneous Lewis lung carcinoma model; type: in vivo, Female C57BL mice; settings: control group 11.45 days
[2] = system: murine Lewis lung carcinoma cell line (LLC1); test: Taxol and MGd, tumor regrowth delay in subcutaneous Lewis lung carcinoma model; type: in vivo, Female C57BL mice; settings: control group 11.40 days
[3] = system: murine Lewis lung carcinoma cell line (LLC1); type: in vivo, Female C57BL mice; settings: control group 12.11 days
murine Lewis lung cancer = test: Carboplatin and MGd, murine Lewis lung cancer in C57 mice; type: in vivo; settings: Group #2: 20 μmol/kg MGd on day 7 post tumor inoculation; control group 12.14 days

## O=NN(CCCl)C(=O)NCCCl [BCNU, carmustine, reference compound]
[1]; Group #3: 15 mg/kg BCNU ip on days 10, 12 and 14
  median survival: 10.46 days

## CC(=O)O[C@H]1C(=O)[C@@]2(C)[C@H]([C@H](OC(=O)c3ccccc3)[C@]3(O)C[C@H](OC(=O)[C@H](O)[C@@H](NC(=O)c4ccccc4)c4ccccc4)C(C)=C1C3(C)C)[C@]1(OC(C)=O)CO[C@@H]1C[C@@H]2O [Taxol, paclitaxel, reference compound]
[2]; Group #3: 24 μmol/kg of Taxol iv on days 7, 9, 11 and 13
  median survival: 11.55 days

## Motexafin Gadolinium [MGd]
[3]; Group #2: 20 μmol/kg MGd iv thrice at three day intervals after tumor established
  median survival: 13.07 days
Murine Lewis lung cancer
  median survival: 12.42 days
[2]; Group #2: 20 μmol/kg MGd iv on days 7, 9, 11 and 13
  median survival: 12.90 days
[1]; Group #2: 20 μmol/kg MGd iv on days 10, 12 and 14
  median survival: 10.04 days

## bleomycin [reference compound]
[3]; Group #3: 10 units/kg bleomycin iv thrice at three day intervals after tumor established
  median survival: 14.73 days

— US20050261171A1, “Combination cancer therapy” (Pharmacyclics, Inc., priority 2001, published 2005)
